Results as given in paper PMC11631053, “A receptor-based assay to study the sweet and bitter tastes of sweeteners and binary sweet blends: the SWEET project” (Chemical Senses, 2024).
Marks after values point to notes of the source that are not given here.

Assays:
[1] = sucrose = 1; ref Schiffman and Gatlin (1993); cited from earlier work
[2] = target: T1, TAS1R2/TAS1R3 (Homo sapiens, UniProt Q7RTX0+Q8TE23); experiment: Calcium mobilization assay, HEK293T-Gα16gust44 cells expressing the sweet taste receptor; conditions: sweet compound alone
T1 sequence (Q8TE23 20-839): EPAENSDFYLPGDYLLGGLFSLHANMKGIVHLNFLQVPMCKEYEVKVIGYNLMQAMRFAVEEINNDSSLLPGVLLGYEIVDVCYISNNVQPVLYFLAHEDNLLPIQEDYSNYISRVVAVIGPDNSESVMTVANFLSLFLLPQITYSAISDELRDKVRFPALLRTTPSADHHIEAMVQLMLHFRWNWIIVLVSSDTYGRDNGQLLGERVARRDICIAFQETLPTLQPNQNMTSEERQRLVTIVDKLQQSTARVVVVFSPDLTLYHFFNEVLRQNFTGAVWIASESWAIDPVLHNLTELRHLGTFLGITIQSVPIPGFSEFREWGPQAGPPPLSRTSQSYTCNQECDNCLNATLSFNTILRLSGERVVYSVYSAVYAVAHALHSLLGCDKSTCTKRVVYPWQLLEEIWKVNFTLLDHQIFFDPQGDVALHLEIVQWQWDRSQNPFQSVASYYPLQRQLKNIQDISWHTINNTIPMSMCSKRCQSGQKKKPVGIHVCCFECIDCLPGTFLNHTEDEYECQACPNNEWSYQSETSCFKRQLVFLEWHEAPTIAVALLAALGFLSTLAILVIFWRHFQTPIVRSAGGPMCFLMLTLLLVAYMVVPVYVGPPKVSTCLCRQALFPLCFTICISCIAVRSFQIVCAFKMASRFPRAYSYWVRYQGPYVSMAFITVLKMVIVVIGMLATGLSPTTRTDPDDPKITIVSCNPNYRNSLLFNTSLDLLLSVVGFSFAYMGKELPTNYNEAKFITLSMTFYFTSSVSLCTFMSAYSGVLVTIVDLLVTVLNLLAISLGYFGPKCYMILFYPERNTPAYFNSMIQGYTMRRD
T1 sequence (Q7RTX0 21-852): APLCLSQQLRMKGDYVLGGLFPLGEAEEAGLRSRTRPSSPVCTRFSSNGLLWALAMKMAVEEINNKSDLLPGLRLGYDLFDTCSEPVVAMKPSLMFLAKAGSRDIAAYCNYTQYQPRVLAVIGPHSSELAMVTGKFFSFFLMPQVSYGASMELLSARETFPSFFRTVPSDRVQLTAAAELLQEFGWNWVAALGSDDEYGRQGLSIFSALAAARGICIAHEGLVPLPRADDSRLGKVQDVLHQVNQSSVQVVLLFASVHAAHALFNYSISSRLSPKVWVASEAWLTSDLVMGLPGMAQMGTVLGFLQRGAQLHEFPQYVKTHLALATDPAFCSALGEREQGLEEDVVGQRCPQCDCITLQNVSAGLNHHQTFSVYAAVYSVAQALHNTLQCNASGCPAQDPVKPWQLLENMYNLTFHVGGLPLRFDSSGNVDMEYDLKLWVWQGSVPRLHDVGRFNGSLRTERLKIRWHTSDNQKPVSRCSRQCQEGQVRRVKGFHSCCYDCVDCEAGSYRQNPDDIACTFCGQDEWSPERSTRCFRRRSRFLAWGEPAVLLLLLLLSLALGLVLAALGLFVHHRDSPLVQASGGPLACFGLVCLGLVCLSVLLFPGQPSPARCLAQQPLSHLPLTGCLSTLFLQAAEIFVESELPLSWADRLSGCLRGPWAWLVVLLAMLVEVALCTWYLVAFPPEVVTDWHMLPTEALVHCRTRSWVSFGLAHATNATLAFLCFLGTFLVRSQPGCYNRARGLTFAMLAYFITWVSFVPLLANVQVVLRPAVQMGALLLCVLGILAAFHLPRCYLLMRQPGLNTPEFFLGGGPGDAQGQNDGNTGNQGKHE
Protocol: Different concentration ranges were tested depending on the injected sweet compound. […] All of the concentration-receptor combinations were measured in triplicate, and each experiment was repeated at least 3 times. The Ca^2+ change was expressed as a fractional change in fluorescent light intensity: ΔF/F = (F − F0)/F0, where F was the fluorescent light intensity at each point, and F0 was the value of fluorescent light emitted prior to stimulus application. To calculate dose–response relationships, the changes in fluorescence upon stimulus application were averaged, mock-subtracted and baseline-corrected. The resulting obtained dose–response data were adjusted by using a 4-parameter logistic equation.

[3] = tested on: TAS2R8; conditions: ref Meyerhof et al. 2010; cited from earlier work
[4] = tested on: TAS2R1; conditions: ref Meyerhof et al. 2010; cited from earlier work

Molecule: OC[C@H]1O[C@@](CO)(O[C@H]2O[C@H](CO)[C@@H](O)[C@H](O)[C@H]2O)[C@@H](O)[C@@H]1O [Sucrose, reference compound]
- Sweetness potency [1]: 1^g
- Max ΔF/F0 ([2]; maximal signal amplitude): 0.10 ± 0.03

Molecule: O=S(=O)(O)NC1CCCCC1 [cyclamate]
- concentration at which activation of TAS2R8 occurs [3]: approximately 30 mM
- concentration at which activation of TAS2R1 occurs [4]: approximately 30 mM

B1: thaumatin (protein)
chain: ATFEIVNRCSYTVWAAASKGDAALDAGGRQLNSGESWTINVEPGTNGGKIWARTDCYFDDSGSGICKTGDCGGLLRCKRFGRPPTTLAEFSLNQYGKDYIDISNIKGFNVPMDFSPTTRGCRGVRCAADIVGQCPAKLKAPGGGCNDACTVFQTSEYCCTTGKCGPTEYSRFFKRLCPDAFSYVLDKPTTVTCPGSSNYRVTFCPTA
modifications: 8 disulfide bonds; natural (E957) thaumatin is a mixture of mainly thaumatin I and II
- EC50 ([2]; read-out: EC50 value): 12 ± 2 µM
